The results in this text go back to ChEMBL document CHEMBL5143701, “Evaluation of potential anticonvulsant fluorinated N-benzamide enaminones as T-type Ca2+ channel blockers” (Bioorg Med Chem, 2022).

What all share (type): cell-based
The subject of assay [1] is ND7/23. Description: Inhibition of Voltage-dependent T-type calcium channel in mouse ND7/23 cells assessed as reduction in volatage induced T-type Ca2+ current density at 50 uM incubated for 5 mins by whole cell voltage-clamp assay.
For assay [2], the target named is Voltage-dependent T-type calcium channel subunit alpha-1H (Homo sapiens) (UniProt O95180). Description: Inhibition of Cav3.2 (unknown origin) stably transfected in HEK293 cells assessed as volatage induced T-type Ca2+ current at 1 to 50 uM incubated for 5 mins by whole cell voltage-clamp assay. The settings on record: dose 1-50 µM.
Voltage-dependent T-type calcium channel subunit alpha-1H (Homo sapiens), sequence (O95180 whole entry): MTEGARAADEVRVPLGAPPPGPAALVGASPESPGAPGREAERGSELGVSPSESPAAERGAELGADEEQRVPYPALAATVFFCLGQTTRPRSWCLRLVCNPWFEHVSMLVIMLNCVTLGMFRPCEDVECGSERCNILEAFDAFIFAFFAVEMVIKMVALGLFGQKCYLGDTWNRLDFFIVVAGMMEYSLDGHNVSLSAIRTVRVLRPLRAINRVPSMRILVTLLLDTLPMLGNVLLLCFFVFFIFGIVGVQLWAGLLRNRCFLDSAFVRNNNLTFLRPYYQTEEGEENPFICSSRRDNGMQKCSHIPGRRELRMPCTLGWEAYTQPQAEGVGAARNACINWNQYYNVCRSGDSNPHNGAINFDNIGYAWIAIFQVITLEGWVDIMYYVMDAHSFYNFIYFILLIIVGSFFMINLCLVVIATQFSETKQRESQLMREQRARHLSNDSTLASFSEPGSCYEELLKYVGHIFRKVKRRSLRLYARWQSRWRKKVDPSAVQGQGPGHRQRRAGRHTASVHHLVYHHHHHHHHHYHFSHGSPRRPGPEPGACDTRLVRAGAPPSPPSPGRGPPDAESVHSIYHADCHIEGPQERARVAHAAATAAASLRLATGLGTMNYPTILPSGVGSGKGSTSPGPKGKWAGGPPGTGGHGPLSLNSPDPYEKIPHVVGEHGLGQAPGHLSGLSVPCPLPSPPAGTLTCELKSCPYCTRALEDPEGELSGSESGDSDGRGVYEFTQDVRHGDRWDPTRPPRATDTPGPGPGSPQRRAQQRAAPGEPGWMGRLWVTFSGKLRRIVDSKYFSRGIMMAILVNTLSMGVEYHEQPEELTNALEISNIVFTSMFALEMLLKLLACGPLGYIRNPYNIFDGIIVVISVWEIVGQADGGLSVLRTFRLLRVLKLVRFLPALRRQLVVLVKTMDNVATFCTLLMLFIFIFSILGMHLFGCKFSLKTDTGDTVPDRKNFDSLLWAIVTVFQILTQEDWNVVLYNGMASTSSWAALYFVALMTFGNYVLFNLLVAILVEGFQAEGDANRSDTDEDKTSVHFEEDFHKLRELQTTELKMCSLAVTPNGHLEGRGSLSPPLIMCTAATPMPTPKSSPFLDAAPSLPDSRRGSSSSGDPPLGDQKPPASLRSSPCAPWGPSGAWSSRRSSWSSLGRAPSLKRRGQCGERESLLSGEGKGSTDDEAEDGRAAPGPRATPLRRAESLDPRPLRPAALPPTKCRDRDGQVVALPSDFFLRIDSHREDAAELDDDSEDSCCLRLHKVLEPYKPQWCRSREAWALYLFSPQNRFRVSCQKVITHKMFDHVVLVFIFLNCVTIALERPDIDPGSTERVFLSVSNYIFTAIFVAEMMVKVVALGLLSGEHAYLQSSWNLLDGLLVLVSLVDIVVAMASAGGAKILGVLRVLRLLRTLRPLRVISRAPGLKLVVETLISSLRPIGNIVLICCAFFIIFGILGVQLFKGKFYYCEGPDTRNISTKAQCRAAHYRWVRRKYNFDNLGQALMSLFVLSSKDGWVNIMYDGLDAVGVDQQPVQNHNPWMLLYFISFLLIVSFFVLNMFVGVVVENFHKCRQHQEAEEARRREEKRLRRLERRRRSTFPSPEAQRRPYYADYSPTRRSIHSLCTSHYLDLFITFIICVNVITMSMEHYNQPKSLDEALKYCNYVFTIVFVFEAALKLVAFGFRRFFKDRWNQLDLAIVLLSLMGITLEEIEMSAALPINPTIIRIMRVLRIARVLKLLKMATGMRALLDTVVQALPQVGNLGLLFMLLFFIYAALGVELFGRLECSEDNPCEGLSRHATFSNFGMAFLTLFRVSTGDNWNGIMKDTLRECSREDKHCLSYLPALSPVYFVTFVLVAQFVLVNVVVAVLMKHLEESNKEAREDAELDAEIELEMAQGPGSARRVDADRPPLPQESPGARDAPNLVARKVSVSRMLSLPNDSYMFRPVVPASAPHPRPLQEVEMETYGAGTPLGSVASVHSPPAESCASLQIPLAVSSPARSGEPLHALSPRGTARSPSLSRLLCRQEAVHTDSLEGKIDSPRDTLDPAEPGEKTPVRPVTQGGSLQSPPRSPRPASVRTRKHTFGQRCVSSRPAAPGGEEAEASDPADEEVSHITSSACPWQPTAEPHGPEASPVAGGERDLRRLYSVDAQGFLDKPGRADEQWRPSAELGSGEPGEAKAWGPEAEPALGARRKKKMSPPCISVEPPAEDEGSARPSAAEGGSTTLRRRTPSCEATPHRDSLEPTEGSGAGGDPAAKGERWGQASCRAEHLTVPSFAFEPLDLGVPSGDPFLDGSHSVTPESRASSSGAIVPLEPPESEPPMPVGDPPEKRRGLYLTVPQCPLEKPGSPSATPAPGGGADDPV
In assay [3] the test system is ND7/23. Nature of the assay: Inhibition of Voltage-dependent T-type calcium channel in mouse ND7/23 cells assessed as reduction in volatage induced T-type Ca2+ current density at 50 uM incubated for 5 mins followed by compound washout by whole cell voltage-clamp assay.
Assay [4] in a line: Inhibition of Voltage-dependent T-type calcium channel in mouse ND7/23 cells assessed as reduction in volatage induced T-type Ca2+ current density incubated for 5 mins by whole cell voltage-clamp assay. The settings on record: ND7/23, 5 min.
Assay [5] has as its target Voltage-dependent T-type calcium channel subunit alpha-1H (Homo sapiens) (UniProt O95180). Nature of the assay: Inhibition of Cav3.2 (unknown origin) stably transfected in HEK293 cells assessed as reduction in volatage induced peak current at 10 uM incubated for 5 mins by whole cell voltage-clamp assay.
Assay [6] shares this target. Description: Inhibition of Cav3.2 (unknown origin) stably transfected in HEK293 cells assessed as activation time constant transient current at 10 uM incubated for 5 mins by whole cell voltage-clamp assay.
Assay [7] shares this target. Nature of the assay: Inhibition of Cav3.2 (unknown origin) stably transfected in HEK293 cells assessed as V1/2 at 10 uM incubated for 5 mins by whole cell voltage-clamp assay (reference value: -64.8 +/- 1.3mV).
Assay [8] has the same target. Description: Inhibition of Cav3.2 (unknown origin) stably transfected in HEK293 cells assessed as slope factor at 10 uM incubated for 5 mins by whole cell voltage-clamp assay (reference value: 5.2 +/- 0.2No_unit).
For assay [9] the target is unchanged. Nature of the assay: Inhibition of Cav3.2 (unknown origin) stably transfected in HEK293 cells assessed as increase in recovery time at 10 uM incubated for 5 mins by whole cell voltage-clamp assay (reference value: 514.5 +/- 37.8ms).
A further assay deals with HEK293. Description: Inhibition of Cav3.2 (unknown origin) stably transfected in HEK293 cells assessed as reduction in volatage induced Ca2+ current density at 10 uM incubated for 5 mins by whole cell voltage-clamp assay. The settings on record: Homo sapiens.
In assay [10] the target is Voltage-dependent T-type calcium channel subunit alpha-1I (Homo sapiens) (UniProt Q9P0X4). Description: Inhibition of Cav3.3 (unknown origin) stably transfected in HEK293 cells assessed as activation time constant transient current at 10 uM incubated for 5 mins by whole cell voltage-clamp assay.
Voltage-dependent T-type calcium channel subunit alpha-1I (Homo sapiens), sequence (Q9P0X4 whole entry): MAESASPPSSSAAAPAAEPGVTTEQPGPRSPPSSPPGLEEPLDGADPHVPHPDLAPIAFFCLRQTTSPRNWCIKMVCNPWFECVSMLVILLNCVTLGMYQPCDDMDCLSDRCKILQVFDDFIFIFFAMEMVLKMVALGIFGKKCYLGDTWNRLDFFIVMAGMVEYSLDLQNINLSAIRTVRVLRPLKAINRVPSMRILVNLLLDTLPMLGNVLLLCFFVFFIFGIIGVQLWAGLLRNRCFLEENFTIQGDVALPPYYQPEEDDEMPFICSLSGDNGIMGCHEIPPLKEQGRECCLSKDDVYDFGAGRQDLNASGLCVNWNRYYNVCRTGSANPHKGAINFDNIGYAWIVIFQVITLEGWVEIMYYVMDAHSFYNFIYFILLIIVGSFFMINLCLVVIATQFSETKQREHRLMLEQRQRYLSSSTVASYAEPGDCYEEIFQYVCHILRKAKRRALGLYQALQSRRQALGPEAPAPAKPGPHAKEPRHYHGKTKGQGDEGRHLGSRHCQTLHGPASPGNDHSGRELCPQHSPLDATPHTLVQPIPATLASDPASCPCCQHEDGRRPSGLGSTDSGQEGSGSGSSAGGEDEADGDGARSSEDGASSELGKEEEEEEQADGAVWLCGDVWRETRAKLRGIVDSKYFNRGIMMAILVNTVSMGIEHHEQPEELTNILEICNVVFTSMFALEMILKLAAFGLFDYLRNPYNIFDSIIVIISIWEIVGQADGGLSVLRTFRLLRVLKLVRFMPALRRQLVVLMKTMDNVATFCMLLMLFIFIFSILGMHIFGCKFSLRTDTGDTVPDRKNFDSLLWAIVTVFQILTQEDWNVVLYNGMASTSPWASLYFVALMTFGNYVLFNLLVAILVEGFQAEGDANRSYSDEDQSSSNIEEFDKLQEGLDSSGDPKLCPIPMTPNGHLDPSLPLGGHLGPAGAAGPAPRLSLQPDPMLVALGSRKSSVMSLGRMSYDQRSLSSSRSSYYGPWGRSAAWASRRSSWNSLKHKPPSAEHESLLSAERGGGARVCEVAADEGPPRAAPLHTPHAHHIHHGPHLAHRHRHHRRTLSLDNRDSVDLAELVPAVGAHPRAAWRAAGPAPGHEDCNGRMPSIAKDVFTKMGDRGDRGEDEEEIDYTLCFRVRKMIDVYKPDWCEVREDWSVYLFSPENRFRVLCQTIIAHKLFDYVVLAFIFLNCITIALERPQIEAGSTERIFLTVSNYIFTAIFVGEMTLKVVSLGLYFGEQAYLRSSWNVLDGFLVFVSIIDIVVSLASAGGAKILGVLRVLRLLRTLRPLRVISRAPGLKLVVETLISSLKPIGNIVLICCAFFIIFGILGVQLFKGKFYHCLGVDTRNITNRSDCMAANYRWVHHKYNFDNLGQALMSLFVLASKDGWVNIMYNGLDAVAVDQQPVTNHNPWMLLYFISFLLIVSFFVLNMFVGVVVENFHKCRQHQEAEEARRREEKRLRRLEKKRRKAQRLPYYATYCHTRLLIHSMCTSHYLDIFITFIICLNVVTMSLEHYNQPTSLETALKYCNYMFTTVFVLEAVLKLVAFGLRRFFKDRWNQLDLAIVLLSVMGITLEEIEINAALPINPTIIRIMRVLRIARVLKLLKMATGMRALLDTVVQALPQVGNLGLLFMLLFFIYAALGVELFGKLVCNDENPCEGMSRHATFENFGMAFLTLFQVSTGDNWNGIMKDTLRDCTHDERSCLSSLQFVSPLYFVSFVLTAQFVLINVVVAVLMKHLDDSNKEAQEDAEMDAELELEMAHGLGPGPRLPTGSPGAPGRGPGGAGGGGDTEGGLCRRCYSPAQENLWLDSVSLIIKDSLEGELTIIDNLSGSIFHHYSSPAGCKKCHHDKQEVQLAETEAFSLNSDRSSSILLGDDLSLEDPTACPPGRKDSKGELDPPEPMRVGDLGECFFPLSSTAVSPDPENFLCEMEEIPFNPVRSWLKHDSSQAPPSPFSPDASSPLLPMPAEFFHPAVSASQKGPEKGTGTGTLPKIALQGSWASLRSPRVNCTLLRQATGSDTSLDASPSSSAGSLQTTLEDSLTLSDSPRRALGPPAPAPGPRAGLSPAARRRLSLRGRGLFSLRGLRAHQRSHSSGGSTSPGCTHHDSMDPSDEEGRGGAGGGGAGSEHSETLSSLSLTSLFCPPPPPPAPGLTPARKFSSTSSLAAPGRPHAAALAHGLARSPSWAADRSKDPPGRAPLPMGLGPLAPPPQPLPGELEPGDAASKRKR
Assay [11] has the same target. Description: Inhibition of Cav3.3 (unknown origin) stably transfected in HEK293 cells assessed as reduction inactivation time constant transient current at 10 uM incubated for 5 mins by whole cell voltage-clamp assay.
The target is the same in assay [12]. Description: Inhibition of Cav3.3 (unknown origin) stably transfected in HEK293 cells assessed as V1/2 at 10 uM incubated for 5 mins by whole cell voltage-clamp assay (reference value: -65.6 +/- 3.1mV).
Assay [13] shares this target. Description: Inhibition of Cav3.3 (unknown origin) stably transfected in HEK293 cells assessed as slope factor at 10 uM incubated for 5 mins by whole cell voltage-clamp assay (reference value: 5.3 +/- 0.6mV).

Active and inactive are the calls of the source. The calls are words filed in the database; no cut-off is given here.

Turning to `CC1CC(=O)C=C(NC(=O)c2cccc(C(F)(F)F)c2)C1` (stereo not given), the inhibition entry in the assay on ND7/23 [1] was “Active”.
Turning to `CC1CC(=O)C=C(NC(=O)c2ccccc2C(F)(F)F)C1` (stereo not given), the inhibition result in the assay with ND7/23 [1] is “Active”.
Take `CC1CC(=O)C=C(NC(=O)c2cc(C(F)(F)F)cc(C(F)(F)F)c2)C1` (stereo not given): the inhibition entry (in assay [2]; with ND7/23 [3]; in [5]; in [6]; with HEK293; in [10]) was “Active” in each case. Moreover, the inhibition entry in [11] was “Active”. Also, the IC50 in assay [4] turned out to be 18.9 µM. For the same molecule, the V1/2 in [7] was -70.2 mV; in assay [12] it was -58.5 mV. Moreover, the Activity in assay [8] was 6; in [13] it was 5.3. For the same molecule, in [9], the TIME amounted to 0.000267 h.

As usually defined, the IC50 is the concentration needed to halve the response being measured.
